Activity calls are given as the source filed them.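 The calls were made as follows: active = fitted curve drops below -35% activity at a concentration within twice the top valid tested dose; inconclusive = no clear call, values can overlap the other calls; inactive = signal rising instead of falling, among other cases.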

A short description of the first assay: HepG2 hepatoma cell cytotoxicity, dose response, cytotoxicity control, CellTiter-Glo luminescence, cherry-pick, set 3 (AID 720589). The settings on record: HepG2 viability, ATP luminescence (CellTiter-Glo), 72 h; at 0.011 µM; active compounds read low; 0% = untreated, negative = ATP loss.
As to `COc1ccccc1/C=C1\SC(=S)N(CCC(=O)Nc2cc(C)on2)C1=O`, the max activity is -26.3% (inactive). Take `N/C(Cc1nc(-c2ccc(F)cc2)cs1)=N\O`: the max activity was 20.4% (inactive). `C/C=C/c1ccc([C@H]2[C@@H](CO)N3C(=O)CN(S(=O)(=O)c4cccc(F)c4)C[C@@H]23)cc1`: the max activity was 26.3% (inactive). On the same count and under the same terms, next, `Cc1cccc(N2CCN(C3C(=O)Nc4ccccc4-n4nnnc43)CC2)c1C` (stereo not drawn): 12.3% (inactive); `COc1ccccc1N(/N=C1\Sc2ccccc2C1=O)C(C)=O`: -37.6% (inactive).

As for `C=CC[n+]1c(-c2ccc(C)cc2)csc1Nc1ccc(NC(C)=O)cc1`, the max activity was 20.8% (inactive).

Turning to `CN(C)[C@@H]1CCC[C@@H]1OC(=O)C(c1ccccc1)c1ccccc1`, the max activity is 32.6% (inactive).

Take `O=C(NCc1ccc(F)cc1)N1[C@H]2CC[C@@H]1C=C(c1ccc(F)cc1OCc1ccccc1)C2`: the max activity was 21.9% (inactive). The same measure, in the same setting: next, `C[C@@H]1CN([C@@H](C)CO)S(=O)(=O)c2ccc(C#Cc3ccncc3)cc2O[C@H]1CN(C)S(=O)(=O)c1ccccc1`: -29.6% (inactive); `CCOC(=O)c1c(-c2ccc(C)cc2)csc1NC(=O)CCN1CCOCC1`: 41.8% (inactive).

The same assay, now with this note: HepG2 viability, ATP luminescence (CellTiter-Glo), 72 h; at 0.035 µM; active compounds read low; 0% = untreated, negative = ATP loss.
For the compound `COc1ccc(S(=O)(=O)N2CC[C@@H]3[C@@H](CO)Nc4ccc(-c5ccc(C#N)cc5)cc4[C@@H]32)cc1`, the max activity is -30.2% (inactive). In the case of `CN(C)C(=S)N=Nc1[nH]c2ccccc2c1O`, the max activity was 24.6% (inactive). In the case of `O=c1c2ccccc2oc2ccc(C#CC3(O)CCCCC3)cc12`, the max activity was -33.7% (inactive).

As to `COc1ccc(/C=C2\SC(=O)N(CCCC(=O)Nc3cc(Cl)ccc3C(=O)O)C2=O)cc1`, the max activity was -25.6% (inactive). In the case of `C/C(=N\OCc1cccc(C(=O)O)c1)c1ccc(Cl)cc1`, the max activity is -7.45% (inactive).

Still in this assay, the particulars now being: HepG2 viability, ATP luminescence (CellTiter-Glo), 72 h; at 0.1 µM; active compounds read low; 0% = untreated, negative = ATP loss.
Consider `COC(=O)C(CC#Cc1ccc2c(c1)[C@]1(C(=O)N2)[C@H](c2ccc(OCCO)cc2)N2[C@H](c3ccccc3)[C@H](c3ccccc3)OC(=O)[C@H]2[C@@H]1C(=O)N1CCN(c2ncccn2)CC1)C(=O)OC`, for which the max activity was -11.5% (inactive). Same read-out and setting: next, `Cc1ccc(S(=O)(=O)N(C)C[C@H]2Oc3c(cccc3N(C)C)C(=O)N([C@@H](C)CO)C[C@@H]2C)cc1`: -28.2% (inactive); `Cc1occc1-c1n[nH]c(=S)n1C`: -6.52% (inactive). For `Cc1[nH]c(=S)sc1Cc1ccc(Cl)c(Cl)c1`, the max activity was -20.8% (inactive). `Cc1noc(C)c1NC(=O)Nc1ccc2c(c1)CC(=O)N([C@@H](C)CO)C[C@@H](C)[C@@H](CN(C)Cc1ccc(Cl)c(Cl)c1)O2`: the max activity is 36.5% (inactive). As to `C/C(=N\Nc1cccc2cccnc12)c1ccccn1`, the max activity is -36.8% (inactive). With `Cc1nn(Cc2ccccc2Cl)c2sc(C(=O)Nc3ccccc3N3CCOCC3)cc12`, the max activity was 13.3% (inactive). For `O=C1Nc2ccccc2C1=Nc1ccc(Br)cc1`, the max activity is -11.9% (inactive). Same read-out and setting: next, `COc1cccc(S(=O)(=O)N(C)C[C@H]2OCc3cnnn3CCCC(=O)N([C@@H](C)CO)C[C@H]2C)c1`: -29.1% (inactive).

The assay is the same for the next values; noted with them: HepG2 viability, ATP luminescence (CellTiter-Glo), 72 h; at 0.3 µM; active compounds read low; 0% = untreated, negative = ATP loss.
As to `O=c1c2ccccc2oc2cc(C#CC3(O)CCCCC3)ccc12`, the max activity was 13.9% (inactive). As for `C[C@H]1CN([C@@H](C)CO)C(=O)c2cc(NS(=O)(=O)c3ccc(Cl)cc3)ccc2O[C@H]1CN(C)Cc1ccc(Cl)c(Cl)c1`, the max activity is -20.4% (inactive). The same measure, in the same setting: as for `Cc1ccc(Cc2c(-c3ccco3)nc3c(C)cc(Br)cn23)cc1`, the figure is -46.1% (inactive); as for `COc1ccc(CN(C)c2ncnc3sccc23)c(OC)c1OC`, -16.5% (inactive); as for `CC(C)(C)c1ccc(Oc2ccc(NC(=O)c3ccccc3C(=O)O)cn2)cc1`, -40.7% (inactive). Take `Cc1ccccc1NC(=O)C(=Cc1ccc(C(=O)O)cc1)C(=O)Nc1ccccc1C`: the max activity was -13.1% (inactive). As to `CCCc1cc(=O)oc2c3c(c4c(c12)OC(C)(C)C=C4)OC(C)C(C)C3O` (stereo not drawn), the max activity was -25.9% (inactive). Still for that read-out and setting: as for `C[C@H]1CN([C@@H](C)CO)S(=O)(=O)c2ccc(C#Cc3ccncc3)cc2O[C@@H]1CN(C)S(=O)(=O)c1ccccc1`, the figure is -9.66% (inactive).

Still in this assay, the particulars now being: HepG2 viability, ATP luminescence (CellTiter-Glo), 72 h; at 0.9 µM; active compounds read low; 0% = untreated, negative = ATP loss.
Take `CC(C)(C)c1ccc(Oc2ccc(N)cn2)cc1`: the max activity was 14% (inactive). Same read-out and setting: as for `COC(=O)c1cccc(NC(=O)NC(=O)c2ccccc2Cl)c1`, the figure is -19.2% (inactive); as for `N#C[C@H]1[C@H](c2ccc(-c3ccccc3F)cc2)[C@@H](CO)N1C(=O)c1ccccn1`, -27.4% (inactive); as for `C[C@@H]1CN([C@H](C)CO)C(=O)c2cc(NC(=O)CCCCCC(=O)Nc3ccccc3N)ccc2O[C@@H]1CN(C)Cc1ccc(Cl)c(Cl)c1`, 13.5% (inactive). Still for that read-out and setting: as for `O=C1C(=O)N(CCS(=O)(=O)c2ccccc2)c2ccc(Cl)cc21`, the figure is -12.3% (inactive). Regarding `C[C@@H]1CN([C@@H](C)CO)C(=O)c2cccc(NC(=O)Nc3ccccc3)c2O[C@@H]1CN(C)Cc1ccc(-c2ccccc2)cc1`, the max activity was -17% (inactive).

The assay is the same for the next values; noted with them: HepG2 viability, ATP luminescence (CellTiter-Glo), 72 h; at 2.85 µM; active compounds read low.
Take `O=C(Nc1ccc(OC(=O)N2CCCCC2)cc1)N1CCOCC1`: the max activity is -13.3% (inactive).

The assay is the same for the next values; noted with them: HepG2 viability, ATP luminescence (CellTiter-Glo), 72 h; at 2.85 µM; active compounds read low; 0% = untreated, negative = ATP loss.
On to `Cc1ccc2c(c1)C(=O)N1[C@H]3c4cc(Br)ccc4OC[C@@H]3[C@H](c3ccccc3)[C@]1(C)C(=O)N2`, for which the max activity is -19.3% (inactive). The same measure, in the same setting: next, `CN(C)c1ccc(N=Nc2ccccc2Br)cc1`: -41.2% (inactive); `CN=c1scc(-c2ccccc2F)n1/N=C/c1ccc(O)c(O)c1O`: -42.6% (inactive); `CC(C)Oc1ccc(Br)cc1C(=O)N/N=C/c1c[nH]c2ccccc12`: -17% (inactive). Same read-out and setting: as for `C[C@@H]1CN([C@H](C)CO)S(=O)(=O)c2ccc(C#CC3CC3)cc2O[C@@H]1CN(C)Cc1ccccc1F`, the figure is -22% (inactive). For `O=C1c2ccc3c4c(ccc(c24)C(=O)N1c1cccc(O)c1)C(=O)N(c1cccc(O)c1)C3=O`, the max activity is -25.5% (inactive). The same measure, in the same setting: as for `COC(=O)C[C@@H]1CC[C@@H]2[C@@H](COc3ccc(NC(=O)Nc4cccc(F)c4)cc3C(=O)N2C)O1`, the figure is -34.7% (inactive); as for `Cc1cc(C)cc(C(=O)NC(=S)Nc2ccc(Cc3ccncc3)cc2)c1`, -39.1% (inactive).

Staying with this assay, now noted: HepG2 viability, ATP luminescence (CellTiter-Glo), 72 h; at 3 µM; active compounds read low; 0% = untreated, negative = ATP loss.
In the case of `CCNC(=O)c1cc2c(c(-c3cccc(-c4cccc(OC)c4)c3)n1)[C@H](CCO)N([S@@](=O)C(C)(C)C)C2`, the max activity is -28.9% (inactive).

The assay is the same for the next values; noted with them: HepG2 viability, ATP luminescence (CellTiter-Glo), 72 h; at 8 µM; active compounds read low; 0% = untreated, negative = ATP loss.
For `Nc1ccc2c(c1)OC1(CCCC1)O2`, the max activity was -32.8% (inactive). Still for that read-out and setting: as for `CN(C)c1ccc(-c2ccnc3c2CC(C)(C(=O)NCc2ccco2)O3)cc1` (stereo not drawn), the figure is -25.6% (inactive).

The same assay, now with this note: HepG2 viability, ATP luminescence (CellTiter-Glo), 72 h; at 23.5 µM; active compounds read low; 0% = untreated, negative = ATP loss.
As to `C[C@H](CO)N1C[C@H](C)[C@H](CN(C)Cc2ccccc2)Oc2ccc(NC(=O)CCCCCC(=O)Nc3ccccc3N)cc2CC1=O`, the max activity is -23.9% (inactive).

The assay is the same for the next values; noted with them: HepG2 viability, ATP luminescence (CellTiter-Glo), 72 h; at 26 µM; active compounds read low; 0% = untreated, negative = ATP loss.
For the compound `O=c1cc(-c2ccccc2)oc2ccc3ccccc3c12`, the max activity was -21.9% (inactive). Still for that read-out and setting: next, `Cc1cc(C(=O)CN2C(=O)c3ccccc3S2(=O)=O)c(C)n1C(C)C`: 17.7% (inactive); `O=C(Nc1nc(-c2ccc(F)c(F)c2)cs1)c1ccc(OCC2CCCO2)cc1` (stereo not drawn): -28.7% (inactive); `COc1ccc(C=C2CCc3ccccc3C2=O)cc1`: -23.4% (inactive).

With `C#CCOCCOCCOCCNc1nc(N2CCN(C(=O)CCCCCCCCCCNC(=O)Cn3cc(C[C@@H](C)O)nn3)CC2)nc(N2CCN(C(=O)CCCCCCCCCCNC(=O)[C@H](CO)n3cc(CCCSC)nn3)CC2)n1`, the max activity is 39.2% (inactive). Still for that read-out and setting: next, `CN(CCO)c1ccc(/C=N/Nc2nncc3ccccc23)cc1`: -29.7% (inactive); `O=C(CCCN1C(=O)S/C(=C\c2ccccc2)C1=O)NNC(=O)c1ccccc1O`: -21.8% (inactive).

Take `O=C(O)c1ccc(N/N=C/c2c[nH]c3ccccc23)cc1`: the max activity is -17.3% (inactive). As for `CN1C(=O)c2cc(NC(=O)c3ccc(Cl)cc3)ccc2OC[C@@H]2O[C@@H](CC(=O)NCc3cccc(F)c3)CC[C@H]21`, the max activity is -22.6% (inactive). On to `O=c1[nH]c(/C=C2\C=Nc3ccccc32)c(O)n1Cc1ccccc1F`, for which the max activity was -19.8% (inactive). On the same count and under the same terms, as for `CCN(CC)c1ccc(C2NC(=O)c3ccccc3N2)cc1` (stereo not drawn), the figure is -26.4% (inactive); as for `COc1cccc(CN2CCC2(C)C(=O)Nc2cccc3cccnc23)c1F` (stereo not drawn), -24% (inactive). For `Cc1ccc2nc(-c3ccccc3)nn2c1`, the max activity is -45.7% (inactive). On the same count and under the same terms, next, `CCCn1nnc(NC(=S)NC(=O)C(C)(C)C)n1`: -35.2% (inactive); `Cc1ccc2oc(/N=C(\N)NC(=O)C(C)(C)C)nc2c1`: -11.8% (inactive). On the same count and under the same terms, next, `CCNC(=O)[C@@H]1[C@@H](CO)[C@@H]2Cn3c(ccc(C4=CCCCC4)c3=O)[C@H]1N2CC`: -22.3% (inactive); `Cc1nc2ncccn2c1-c1csc(Nc2ccc(O)cc2)n1`: -23.1% (inactive).

The values are drawn from PubChem BioAssay AID720589 (Broad Institute, 2013).
